US20250313546A1, “NUCLEIC ACID BINDERS” (UNIVERSITY OF STRATHCLYDE, priority 2022, published 2025)
In brackets after ≈: the same amount, converted by molar mass. Where two headings read alike, the source gives them in different places.

Columns and labels:
[1] = test system: Staphylococcus aureus (ATCC 43300); assay: Antibacterial MIC, broth microdilution (CLSI); type: cell-based; conditions: for MIC80: Staphylococcus aureus, ATCC43300, read-out: MIC80 S. aureus; for S. aureus Selectivity Indices, Group: SI, IC50 (μM)/MIC80 (μM), HEK293 cytotoxicity, Alkyl Amidines and NH Pyrroles
[2] = test system: Escherichia coli (ATCC 25922); assay: Antibacterial MIC, broth microdilution (CLSI); type: cell-based; conditions: Escherichia coli, ATCC25922; read-out: MIC80 E. coli
Aspergillus flavus = assay: Expanded set of filamentous fungi, MIC broth microdilution (CLSI); type: cell-based; conditions: MIC at 50% inhibition; for MIC50: Aspergillus flavus; for MIC50 Aspergillus flavus: isolate Aflav3
Scedosporium spp. = assay: as above; type: cell-based
Lomentospora prolificans = assay: as above; type: cell-based; conditions: isolate S2, MIC at 50% inhibition
Paecilomyces variotii = assay: as above; type: cell-based; conditions: isolate MYA-3630, MIC at 50% inhibition
Rhizopus arrhizus = assay: as above; type: cell-based
Blastomyces dermatitidis = assay: as above; type: cell-based
Candida parapsilosis = assay: Expanded set of yeasts, MIC broth microdilution (CLSI); type: cell-based; conditions: MIC at 50% inhibition; for MIC50: Lodderomyces parapsilosis
C. krusei = assay: as above; type: cell-based; conditions: Pichia kudriavzevii, ATCC6258; isolate ATCC 6258; MIC at 50% inhibition
C. albicans = assay: as above; type: cell-based; conditions: MIC at 50% inhibition; for MIC50: Candida albicans; for MIC50 C. albicans: isolate CA90028
C. guilliiermondii = assay: as above; type: cell-based; conditions: MIC at 50% inhibition; for MIC50: isolate Cgui1
[3] = test system: Genomic double stranded DNA (salmon); assay: Fluorescence intercalator displacement (FID) assay, SYBR-safe probe; conditions: 20 μM compound, 30° C., lower % = stronger binding
How it was run: (§1)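 Probe displacement was measured at 30 °C in 1 mM phosphate pH 7.4 containing SybrSafe (12500-fold dilution), 3.76 ng/mL nucleic acid (salmon dsDNA or polyAU dsRNA) and 20 μM compound. Fluorescence loss is normalised between probe-only and probe-plus-nucleic-acid controls.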

[4] = test system: PolyAU double stranded RNA; assay: as above; conditions: 20 μM compound, 30° C., lower % = stronger binding
How it was run: as §1

[5] = test system: A. fumigatus A1160 (MFIG001); conditions: Aspergillus fumigatus, read-out: MIC99 A. fumigatus A1160
A. flavus (CBS 128.202) = conditions: Aspergillus flavus, CBS128, read-out: MIC99 A. flavus
Method: (§2) The Minimum Inhibitory Concentration (MIC, at 99% inhibition) of the compounds was determined using the broth microdilution method as recommended by EUCAST (EUCAST Definitive Document E.DEF 9.3.2, Method for the determination of broth dilution minimum inhibitory concentrations of antifungal agents for conidia forming moulds and EUCAST Definitive Document E.DEF 7.3.2 Method for the determination of broth dilution minimum inhibitory concentrations of antifungal agents for yeasts).

[6] = test system: Rhizopus arrhizus (NEQAS12.35321); conditions: read-out: MIC99 Rhizopus arrhizus
Candida auris (H.17.157) = conditions: Candidozyma auris, read-out: MIC99 Candida auris
Method: as §2

[7] = test system: Candida glabrata (ACPF3309); conditions: Nakaseomyces glabratus, read-out: MIC99 Candida glabrata
[8] = test system: Fusarium oxysporum (F7098); conditions: read-out: MIC99 Fusarium oxysporum
Method: as §2

[9] = test system: Scedosporium prolificans (F2746); conditions: Lomentospora prolificans, read-out: MIC99 Scedosporium prolificans
Method: as §2

[10] = ATCC204304, isolate ATCC 204304
[11] = isolate S1, MIC at 50% inhibition
[12] = isolate S3, MIC at 50% inhibition
[13] = isolate 99-880, MIC at 50% inhibition
[14] = isolate 99-892, MIC at 50% inhibition
[15] = isolate RA3, MIC at 50% inhibition
[16] = isolate BD1, MIC at 50% inhibition
[17] = isolate BD2, MIC at 50% inhibition
[18] = isolate BD3, MIC at 50% inhibition
[19] = ATCC22019, isolate ATCC 22019, read-out: MIC50 Candida parapsilosis
[20] = isolate CP1, read-out: MIC50 C. parapsilosis

Compound	MIC80 [1]	MIC80 [2]	MIC50 (Aspergillus flavus; [10])	MIC50 (Aspergillus flavus; isolate Aflav2)	MIC50 Aspergillus flavus (Aspergillus flavus)	MIC50 (Scedosporium spp.; [11])	MIC50 (Scedosporium spp.; [12])	MIC50 (Lomentospora prolificans)	MIC50 (Paecilomyces variotii)	MIC50 (Rhizopus arrhizus; [13])	MIC50 (Rhizopus arrhizus; [14])	MIC50 (Rhizopus arrhizus; [15])	MIC50 (Blastomyces dermatitidis; [16])	MIC50 (Blastomyces dermatitidis; [17])	MIC50 (Blastomyces dermatitidis; [18])	MIC50 (Candida parapsilosis; [19])	MIC50 (Candida parapsilosis; [20])	MIC50 C. parapsilosis (Candida parapsilosis; isolate CP2)	MIC50 C. parapsilosis (Candida parapsilosis; isolate CP3)	MIC50 (C. krusei)	also measured
C/N=C(\CCNC(=O)c1cc(NC(=O)c2cc(NC(=O)c3ccc(/C=C/c4ccc(N(C)C)cc4)nc3)cn2C)cn1C)NC [Ia8, 6-((E)-4-(dimethylamino)styryl)-N-(1-methyl-5-((1-methyl-5-(((E)-3-(methylamino)-3-(methylimino)propyl)carbamoyl)-1H-pyrrol-3-yl)carbamoyl)-1H-pyrrol-3-yl)nicotinamide]	5 to 25 µM (≈ 3.05 to 15.2 µg/mL)	> 100 µM	1 to 8 µg/mL (≈ 1.64 to 13.1 µM)	1 to 8 µg/mL (≈ 1.64 to 13.1 µM)	** (** means 1 μg/mL < MIC50 <= 8 μg/mL)	1 to 8 µg/mL (≈ 1.64 to 13.1 µM)	1 to 8 µg/mL (≈ 1.64 to 13.1 µM)	1 to 8 µg/mL (≈ 1.64 to 13.1 µM)	1 to 8 µg/mL (≈ 1.64 to 13.1 µM)	1 to 8 µg/mL (≈ 1.64 to 13.1 µM)	1 to 8 µg/mL (≈ 1.64 to 13.1 µM)	1 to 8 µg/mL (≈ 1.64 to 13.1 µM)	1 to 8 µg/mL (≈ 1.64 to 13.1 µM)	1 to 8 µg/mL (≈ 1.64 to 13.1 µM)	1 to 8 µg/mL (≈ 1.64 to 13.1 µM)	1 to 8 µg/mL (≈ 1.64 to 13.1 µM)	1 to 8 µg/mL (≈ 1.64 to 13.1 µM)	** (** means 1 μg/mL < MIC50 <= 8 μg/mL)	** (** means 1 μg/mL < MIC50 <= 8 μg/mL)	1 to 8 µg/mL (≈ 1.64 to 13.1 µM)	MIC50 (C. albicans; isolate CA3): 1 to 8 µg/mL (≈ 1.64 to 13.1 µM); MIC50 (C. albicans; isolate SC5314): 1 to 8 µg/mL (≈ 1.64 to 13.1 µM); MIC50 C. albicans (C. albicans): ** (** means 1 μg/mL < MIC50 <= 8 μg/mL); MIC50 (C. guilliiermondii): 1 to 8 µg/mL (≈ 1.64 to 13.1 µM); MIC50 C. guilliiermondii (C. guilliiermondii; isolate Cgui2): ** (** means 1 μg/mL < MIC50 <= 8 μg/mL); MIC50 C. guilliiermondii (C. guilliiermondii; isolate Cgui3): ** (** means 1 μg/mL < MIC50 <= 8 μg/mL); % Normalised Fluorescence with gDNA [3]: 4%; % Normalised Fluorescence with polyAU RNA [4]: 9%; MIC99 [5]: 5 to 25 µg/mL (≈ 8.2 to 41 µM); MIC99 (A. flavus (CBS 128.202)): < 5 µg/mL; MIC99 [6]: 5 to 25 µg/mL (≈ 8.2 to 41 µM); MIC99 (Candida auris (H.17.157)): > 50 µg/mL; MIC99 [7]: 5 to 25 µg/mL (≈ 8.2 to 41 µM); MIC99 [8]: < 5 µg/mL; MIC99 [9]: 5 to 25 µg/mL (≈ 8.2 to 41 µM)
[H]/N=C(\CCNC(=O)c1cc(NC(=O)c2cc(NC(=O)c3ccc(C=Cc4ccc(N(C)C)cc4)nc3)cn2C)cn1C)NC [Ia9, (E)-6-(4-(dimethylamino)styryl)-N-(5-((5-((3-imino-3-(methylamino)propyl)carbamoyl)-1-methyl-1H-pyrrol-3-yl)carbamoyl)-1-methyl-1H-pyrrol-3-yl)nicotinamide]	5 to 25 µM (≈ 2.98 to 14.9 µg/mL)	> 100 µM	1 to 8 µg/mL (≈ 1.68 to 13.4 µM)	1 to 8 µg/mL (≈ 1.68 to 13.4 µM)	** (** means 1 μg/mL < MIC50 <= 8 μg/mL)	1 to 8 µg/mL (≈ 1.68 to 13.4 µM)	≤ 1 µg/mL	≤ 1 µg/mL	1 to 8 µg/mL (≈ 1.68 to 13.4 µM)	1 to 8 µg/mL (≈ 1.68 to 13.4 µM)	1 to 8 µg/mL (≈ 1.68 to 13.4 µM)	1 to 8 µg/mL (≈ 1.68 to 13.4 µM)	1 to 8 µg/mL (≈ 1.68 to 13.4 µM)	1 to 8 µg/mL (≈ 1.68 to 13.4 µM)	1 to 8 µg/mL (≈ 1.68 to 13.4 µM)	1 to 8 µg/mL (≈ 1.68 to 13.4 µM)	1 to 8 µg/mL (≈ 1.68 to 13.4 µM)	** (** means 1 μg/mL < MIC50 <= 8 μg/mL)	** (** means 1 μg/mL < MIC50 <= 8 μg/mL)	1 to 8 µg/mL (≈ 1.68 to 13.4 µM)	S. aureus Selectivity Indices, Group [1]: C (Group C: 5 < SI <= 10); MIC50 (C. albicans; isolate CA3): 1 to 8 µg/mL (≈ 1.68 to 13.4 µM); MIC50 (C. albicans; isolate SC5314): 1 to 8 µg/mL (≈ 1.68 to 13.4 µM); MIC50 C. albicans (C. albicans): ** (** means 1 μg/mL < MIC50 <= 8 μg/mL); MIC50 (C. guilliiermondii): 1 to 8 µg/mL (≈ 1.68 to 13.4 µM); MIC50 C. guilliiermondii (C. guilliiermondii; isolate Cgui2): ** (** means 1 μg/mL < MIC50 <= 8 μg/mL); MIC50 C. guilliiermondii (C. guilliiermondii; isolate Cgui3): ** (** means 1 μg/mL < MIC50 <= 8 μg/mL); % Normalised Fluorescence with gDNA [3]: 13%; % Normalised Fluorescence with polyAU RNA [4]: 19%; MIC99 [5]: 5 to 25 µg/mL (≈ 8.39 to 42 µM); MIC99 (A. flavus (CBS 128.202)): 5 to 25 µg/mL (≈ 8.39 to 42 µM); MIC99 [6]: 5 to 25 µg/mL (≈ 8.39 to 42 µM); MIC99 (Candida auris (H.17.157)): > 50 µg/mL; MIC99 [7]: 5 to 25 µg/mL (≈ 8.39 to 42 µM); MIC99 [8]: < 5 µg/mL; MIC99 [9]: 5 to 25 µg/mL (≈ 8.39 to 42 µM)
C/N=C(/CCNC(=O)c1cc(NC(=O)c2cc(NC(=O)c3ccc(/C=C/c4cnc5ccccc5c4)cc3)cn2C)cn1C)NC [Ia10, 1-methyl-4-(1-methyl-4-(4-((E)-2-(quinolin-3-yl)vinyl)benzamido)-1H-pyrrole-2-carboxamido)-N—((Z)-3-(methylamino)-3-(methylimino)propyl)-1H-pyrrole-2-carboxamide]	< 5 µM	> 100 µM	≤ 1 µg/mL	≤ 1 µg/mL	*** (*** means MIC50 <= 1 μg/mL)	≤ 1 µg/mL	≤ 1 µg/mL	≤ 1 µg/mL	1 to 8 µg/mL (≈ 1.62 to 13 µM)	1 to 8 µg/mL (≈ 1.62 to 13 µM)	1 to 8 µg/mL (≈ 1.62 to 13 µM)	1 to 8 µg/mL (≈ 1.62 to 13 µM)	1 to 8 µg/mL (≈ 1.62 to 13 µM)	1 to 8 µg/mL (≈ 1.62 to 13 µM)	8 to 32 µg/mL (≈ 13 to 51.9 µM)	1 to 8 µg/mL (≈ 1.62 to 13 µM)	1 to 8 µg/mL (≈ 1.62 to 13 µM)	** (** means 1 μg/mL < MIC50 <= 8 μg/mL)	** (** means 1 μg/mL < MIC50 <= 8 μg/mL)	≤ 1 µg/mL	S. aureus Selectivity Indices, Group [1]: B (Group B: 3 < SI <= 5); MIC50 (C. albicans; isolate CA3): 1 to 8 µg/mL (≈ 1.62 to 13 µM); MIC50 (C. albicans; isolate SC5314): 1 to 8 µg/mL (≈ 1.62 to 13 µM); MIC50 C. albicans (C. albicans): ** (** means 1 μg/mL < MIC50 <= 8 μg/mL); MIC50 (C. guilliiermondii): 1 to 8 µg/mL (≈ 1.62 to 13 µM); MIC50 C. guilliiermondii (C. guilliiermondii; isolate Cgui2): ** (** means 1 μg/mL < MIC50 <= 8 μg/mL); MIC50 C. guilliiermondii (C. guilliiermondii; isolate Cgui3): ** (** means 1 μg/mL < MIC50 <= 8 μg/mL); % Normalised Fluorescence with gDNA [3]: 8%; % Normalised Fluorescence with polyAU RNA [4]: 17%; MIC99 [5]: < 5 µg/mL; MIC99 (A. flavus (CBS 128.202)): < 5 µg/mL; MIC99 [6]: 5 to 25 µg/mL (≈ 8.11 to 40.5 µM); MIC99 (Candida auris (H.17.157)): 5 to 25 µg/mL (≈ 8.11 to 40.5 µM); MIC99 [7]: < 5 µg/mL; MIC99 [8]: 5 to 25 µg/mL (≈ 8.11 to 40.5 µM); MIC99 [9]: < 5 µg/mL
